Experimental data published in BindingDB's records for patent US10202375 (Redx Pharma PLC, 2019).
Several values for one entry are separate records, joined by “and”; a condition that tells them apart may be missing. Equal entries are not always repeated.

Molecular target: Protein Wnt-3a (Mus musculus, UniProt P27467)
Assay: Dual-Cell beta-Catenin Reporter Assay
Protocol: Mouse L cells transfected to constitutively produce biologically active murine Wnt-3a, referred to as L-Wnt cells, were purchased from the American Type Culture Collection, ATCC, Manassas, Va. (ATCC). These cells were cultured in DMEM supplemented with 10% FCS (Gibco/Invitrogen, Carlsbad, Calif.), 1% geneticin and 1% sodium pyruvate (Sigma) at 37° C. with 5% CO2. The cells were seeded into 96 well plates and treated with serial dilutions of compound diluted to 0.1% DMSO concentration. After 24 hours, cell supernatants were transferred to a 96 well plate previously seeded with Leading Light Wnt Reporter Cells, stably transfected with a luciferase gene under control of Wnt pathway response elements. After a further 24 hours, cells are treated with One-glo luciferase assay system (Promega, Madison, Wis.) and the luminescent signal read by envision.

Sequence of Protein Wnt-3a (P27467 whole entry): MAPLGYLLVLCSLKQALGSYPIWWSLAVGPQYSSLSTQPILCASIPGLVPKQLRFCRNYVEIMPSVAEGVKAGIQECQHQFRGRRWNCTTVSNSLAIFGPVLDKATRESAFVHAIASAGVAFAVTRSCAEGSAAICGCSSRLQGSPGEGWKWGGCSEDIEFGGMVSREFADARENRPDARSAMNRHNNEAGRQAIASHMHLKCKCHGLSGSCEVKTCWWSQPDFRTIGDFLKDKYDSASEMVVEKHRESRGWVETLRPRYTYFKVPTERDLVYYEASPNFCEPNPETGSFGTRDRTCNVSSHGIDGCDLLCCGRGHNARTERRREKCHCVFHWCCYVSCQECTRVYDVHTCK

| SMILES | IC50 |
| --- | --- |
| Cc1cc(-c2nccc3c2ncn3CC(=O)Nc2ccc(-c3cnccn3)cn2)ccn1 [US10202375, Example 20] | 3 nM |
| Cc1cc(-c2nc(C)nc3c2ccn3CC(=O)Nc2ccc(-c3cnccn3)cn2)ccn1 [US10202375, Example 10] | < 1 nM and 0.32 nM |
| Cc1cc(-c2ccnc3c2cnn3CC(=O)Nc2ccc(-c3cnccn3)nc2)ccn1 [US10202375, Example 15] | 3 nM |
